Where “and” joins values, the source holds several entries; their conditions need not be identical. Equal values may be shown once.
Assays:
Assay in all cases: KINOMEscan competition binding
Settings in all cases: compound 0.1 µM
[1] = target: PIP4K2C (human) (UniProt Q8TBX8)
[2] = target: MAPK3 (human) (UniProt P27361)
[3] = target: PI4KB (human) (UniProt Q9UBF8)
[4] = target: LIMK1 (human) (UniProt P53667)
[5] = target: MAPK10 (human) (UniProt P53779)
[6] = target: PRKACB (human) (UniProt P22694)
[7] = target: STK24 (human) (UniProt Q9Y6E0)
[8] = tested on: ABL1 (human), P00519 [F317I]
[9] = target: MAP2K7 (human) (UniProt O14733)
[10] = target: RPS6KA5 KD1 (human) (UniProt O75582)
[11] = target: CIT (human) (UniProt O14578)
[12] = target: STK33 (human) (UniProt Q9BYT3)
[13] = target: MARK2 (human) (UniProt Q7KZI7)
[14] = target: PIK3C2G (human) (UniProt O75747)
[15] = target: TLK2 (human) (UniProt Q86UE8)
[16] = target: JAK3 JH1 catalytic (human) (UniProt P52333)
[17] = target: SGK3 (human) (UniProt Q96BR1)
[18] = target: TAOK3 (human) (UniProt Q9H2K8)
[19] = target: PRKD3 (human) (UniProt O94806)
[20] = target: ABL1 (human) (UniProt P00519)
[21] = target: SYK (human) (UniProt P43405)
[22] = target: MAPK15 (human) (UniProt Q8TD08)
[23] = target: MAP4K4 (human) (UniProt O95819)
[24] = tested on: PIK3CA (human), P42336 [E545A]
[25] = target: CaMK1 (human) (UniProt Q14012)
[26] = target: RPS6KA3 KD2 (human) (UniProt P51812)
[27] = target: STK32A (human) (UniProt Q8WU08)
[28] = target: MST1R (human) (UniProt Q04912)
[29] = tested on: FGFR3 (human), P22607 [G697C]
[30] = target: MAP3K15 (human) (UniProt Q6ZN16)
[31] = target: MYLK (human) (UniProt Q15746)
[32] = target: FLT3 (human) (UniProt P36888)
[33] = target: TTK (human) (UniProt P33981)
[34] = target: IKBKB (human) (UniProt O14920)
[35] = target: STK17A (human) (UniProt Q9UEE5)
[36] = target: KDR (human) (UniProt P35968)
[37] = target: ADCK3 (human) (UniProt Q8NI60)
[38] = target: AKT3 (human) (UniProt Q9Y243)
[39] = tested on: EGFR (human), P00533 [752-759 del]
[40] = target: FYN (human) (UniProt P06241)

Chain of FLT3 (human) (P36888 whole entry, looked up): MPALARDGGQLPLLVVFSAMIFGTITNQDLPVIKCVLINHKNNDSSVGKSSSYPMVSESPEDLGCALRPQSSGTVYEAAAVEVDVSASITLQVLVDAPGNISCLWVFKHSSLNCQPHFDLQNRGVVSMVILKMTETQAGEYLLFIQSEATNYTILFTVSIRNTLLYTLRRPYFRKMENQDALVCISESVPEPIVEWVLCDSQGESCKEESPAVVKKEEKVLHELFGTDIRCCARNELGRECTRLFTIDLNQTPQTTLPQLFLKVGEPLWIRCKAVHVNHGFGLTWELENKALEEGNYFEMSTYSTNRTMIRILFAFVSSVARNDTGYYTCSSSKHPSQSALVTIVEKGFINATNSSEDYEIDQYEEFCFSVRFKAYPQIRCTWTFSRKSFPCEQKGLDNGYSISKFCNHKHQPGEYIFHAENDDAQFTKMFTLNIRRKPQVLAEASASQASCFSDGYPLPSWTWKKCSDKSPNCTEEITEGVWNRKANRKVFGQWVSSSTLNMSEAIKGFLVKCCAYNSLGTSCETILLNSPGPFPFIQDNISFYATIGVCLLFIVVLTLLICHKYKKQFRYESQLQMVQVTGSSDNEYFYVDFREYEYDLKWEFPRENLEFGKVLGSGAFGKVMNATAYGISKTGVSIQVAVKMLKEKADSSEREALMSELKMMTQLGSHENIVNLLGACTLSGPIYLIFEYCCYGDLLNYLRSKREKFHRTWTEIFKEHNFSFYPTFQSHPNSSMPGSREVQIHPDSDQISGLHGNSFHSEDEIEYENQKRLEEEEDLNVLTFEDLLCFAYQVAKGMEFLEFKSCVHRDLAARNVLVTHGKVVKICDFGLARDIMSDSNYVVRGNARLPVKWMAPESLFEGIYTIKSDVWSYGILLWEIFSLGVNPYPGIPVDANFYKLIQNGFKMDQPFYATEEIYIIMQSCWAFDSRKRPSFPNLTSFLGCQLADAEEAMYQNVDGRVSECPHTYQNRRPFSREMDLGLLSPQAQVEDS
Chain of MAPK15 (human) (Q8TD08 whole entry, looked up): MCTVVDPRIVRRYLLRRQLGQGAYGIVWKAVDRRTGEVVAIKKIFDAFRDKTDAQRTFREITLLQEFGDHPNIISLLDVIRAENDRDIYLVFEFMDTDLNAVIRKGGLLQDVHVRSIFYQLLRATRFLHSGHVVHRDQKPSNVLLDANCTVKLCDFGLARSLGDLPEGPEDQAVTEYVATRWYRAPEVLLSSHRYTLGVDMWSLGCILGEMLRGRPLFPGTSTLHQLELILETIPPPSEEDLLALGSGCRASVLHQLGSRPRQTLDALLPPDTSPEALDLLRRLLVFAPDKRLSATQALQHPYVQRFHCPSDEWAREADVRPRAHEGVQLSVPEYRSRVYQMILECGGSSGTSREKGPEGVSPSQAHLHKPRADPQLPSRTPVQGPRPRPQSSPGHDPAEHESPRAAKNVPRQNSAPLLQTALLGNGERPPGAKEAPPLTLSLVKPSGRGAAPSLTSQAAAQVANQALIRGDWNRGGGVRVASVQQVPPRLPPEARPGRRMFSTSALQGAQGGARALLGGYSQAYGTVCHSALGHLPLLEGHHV
Chain of KDR (human) (P35968 whole entry, looked up): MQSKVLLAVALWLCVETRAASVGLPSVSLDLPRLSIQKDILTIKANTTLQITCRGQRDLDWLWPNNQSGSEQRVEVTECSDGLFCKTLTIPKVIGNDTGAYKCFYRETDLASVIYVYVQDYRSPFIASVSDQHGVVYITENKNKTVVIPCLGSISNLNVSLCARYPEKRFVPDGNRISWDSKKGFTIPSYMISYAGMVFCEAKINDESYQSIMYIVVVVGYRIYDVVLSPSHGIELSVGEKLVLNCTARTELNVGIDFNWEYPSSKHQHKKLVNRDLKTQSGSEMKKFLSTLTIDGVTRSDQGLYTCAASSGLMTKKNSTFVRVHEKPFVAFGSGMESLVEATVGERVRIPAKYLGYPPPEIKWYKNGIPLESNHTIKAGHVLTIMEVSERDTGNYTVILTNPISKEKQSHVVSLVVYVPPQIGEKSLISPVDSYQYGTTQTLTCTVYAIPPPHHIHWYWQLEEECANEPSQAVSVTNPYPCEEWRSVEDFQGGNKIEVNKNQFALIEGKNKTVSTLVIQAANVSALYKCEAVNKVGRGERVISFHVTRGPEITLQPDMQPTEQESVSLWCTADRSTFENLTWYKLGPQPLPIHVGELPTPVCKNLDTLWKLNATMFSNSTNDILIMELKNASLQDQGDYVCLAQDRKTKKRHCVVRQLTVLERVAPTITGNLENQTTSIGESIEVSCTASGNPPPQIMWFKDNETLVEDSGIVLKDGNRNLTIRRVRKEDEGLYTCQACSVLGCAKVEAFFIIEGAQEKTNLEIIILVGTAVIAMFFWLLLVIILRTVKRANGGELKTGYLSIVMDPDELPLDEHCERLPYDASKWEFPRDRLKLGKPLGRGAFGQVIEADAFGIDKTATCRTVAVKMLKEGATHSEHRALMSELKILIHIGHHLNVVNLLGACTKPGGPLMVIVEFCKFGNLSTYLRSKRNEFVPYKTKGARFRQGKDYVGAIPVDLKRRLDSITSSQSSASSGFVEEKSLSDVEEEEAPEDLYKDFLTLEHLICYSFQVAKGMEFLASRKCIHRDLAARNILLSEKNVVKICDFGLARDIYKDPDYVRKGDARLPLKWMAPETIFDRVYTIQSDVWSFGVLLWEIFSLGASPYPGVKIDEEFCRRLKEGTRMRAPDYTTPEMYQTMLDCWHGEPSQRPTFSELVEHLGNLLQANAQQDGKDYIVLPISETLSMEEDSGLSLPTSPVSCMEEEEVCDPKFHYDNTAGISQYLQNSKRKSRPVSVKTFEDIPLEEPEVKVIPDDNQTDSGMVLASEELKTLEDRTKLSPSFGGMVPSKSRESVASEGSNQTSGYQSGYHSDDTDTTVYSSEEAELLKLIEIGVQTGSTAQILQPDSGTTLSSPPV
Chain of FGFR3 (human), P22607 [G697C] (P22607 whole entry G697C, looked up): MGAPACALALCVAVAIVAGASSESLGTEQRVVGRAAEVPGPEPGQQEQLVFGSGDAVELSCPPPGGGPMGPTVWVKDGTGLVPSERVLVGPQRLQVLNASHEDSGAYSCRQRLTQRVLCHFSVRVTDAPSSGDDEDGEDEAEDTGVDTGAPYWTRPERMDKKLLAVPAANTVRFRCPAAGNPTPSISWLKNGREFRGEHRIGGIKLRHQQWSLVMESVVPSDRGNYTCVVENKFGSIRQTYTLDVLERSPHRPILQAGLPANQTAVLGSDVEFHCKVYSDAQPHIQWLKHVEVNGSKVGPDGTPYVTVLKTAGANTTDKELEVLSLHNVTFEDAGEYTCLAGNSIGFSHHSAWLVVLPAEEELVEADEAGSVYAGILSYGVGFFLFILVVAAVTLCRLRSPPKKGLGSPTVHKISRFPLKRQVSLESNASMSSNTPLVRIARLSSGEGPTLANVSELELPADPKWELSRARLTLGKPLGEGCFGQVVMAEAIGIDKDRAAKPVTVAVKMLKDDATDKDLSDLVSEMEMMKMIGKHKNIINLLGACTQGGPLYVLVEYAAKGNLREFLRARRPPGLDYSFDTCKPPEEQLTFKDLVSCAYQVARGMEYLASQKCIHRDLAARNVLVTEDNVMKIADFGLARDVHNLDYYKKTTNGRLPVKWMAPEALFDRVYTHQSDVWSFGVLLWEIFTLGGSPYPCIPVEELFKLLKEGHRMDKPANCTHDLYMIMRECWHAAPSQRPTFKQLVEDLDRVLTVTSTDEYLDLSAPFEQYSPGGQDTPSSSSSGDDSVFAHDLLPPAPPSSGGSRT
Chain of PIK3CA (human), P42336 [E545A] (P42336 whole entry E545A, looked up): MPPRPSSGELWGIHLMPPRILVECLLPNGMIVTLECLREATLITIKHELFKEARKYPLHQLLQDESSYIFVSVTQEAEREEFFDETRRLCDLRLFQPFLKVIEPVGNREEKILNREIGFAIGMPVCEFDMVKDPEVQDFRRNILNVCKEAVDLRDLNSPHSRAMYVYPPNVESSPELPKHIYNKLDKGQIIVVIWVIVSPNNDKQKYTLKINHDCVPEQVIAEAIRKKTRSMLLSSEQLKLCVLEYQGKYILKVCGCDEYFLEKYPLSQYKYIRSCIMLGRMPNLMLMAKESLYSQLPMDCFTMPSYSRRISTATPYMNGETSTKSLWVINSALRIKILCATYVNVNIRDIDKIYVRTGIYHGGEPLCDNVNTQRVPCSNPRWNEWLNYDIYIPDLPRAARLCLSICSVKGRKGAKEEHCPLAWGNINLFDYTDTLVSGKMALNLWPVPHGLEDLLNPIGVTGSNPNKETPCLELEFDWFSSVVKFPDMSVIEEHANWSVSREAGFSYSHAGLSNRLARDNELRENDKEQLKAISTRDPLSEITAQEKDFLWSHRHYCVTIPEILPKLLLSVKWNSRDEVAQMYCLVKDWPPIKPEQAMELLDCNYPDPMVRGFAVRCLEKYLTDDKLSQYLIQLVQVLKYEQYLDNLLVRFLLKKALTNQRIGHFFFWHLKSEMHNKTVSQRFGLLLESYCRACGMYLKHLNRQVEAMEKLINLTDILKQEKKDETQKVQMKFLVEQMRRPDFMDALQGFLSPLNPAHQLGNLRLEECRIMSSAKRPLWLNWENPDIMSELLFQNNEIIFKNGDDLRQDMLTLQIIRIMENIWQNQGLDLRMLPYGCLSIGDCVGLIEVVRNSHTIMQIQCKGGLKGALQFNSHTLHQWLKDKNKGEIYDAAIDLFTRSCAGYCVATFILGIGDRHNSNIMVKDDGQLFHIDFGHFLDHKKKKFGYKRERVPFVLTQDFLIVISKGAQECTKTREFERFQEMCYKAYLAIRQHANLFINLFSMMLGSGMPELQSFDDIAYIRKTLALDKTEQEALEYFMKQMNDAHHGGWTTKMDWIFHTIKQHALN

CCc1ccc(C(=O)Nc2cc(CN3CCN(C)CC3)cc(C(F)(F)F)c2)cc1C#Cc1cnc2ccnn2c1
kinase still bound, per cent of control [1]: 100%
kinase still bound, per cent of control [2]: 100%
kinase still bound, per cent of control [3]: 100%
kinase still bound, per cent of control [4]: 85%
kinase still bound, per cent of control [5]: 100%
kinase still bound, per cent of control [6]: 100%
kinase still bound, per cent of control [7]: 100%
kinase still bound, per cent of control [8]: 83%
kinase still bound, per cent of control [9]: 100%
kinase still bound, per cent of control [10]: 93%
kinase still bound, per cent of control [11]: 92%
kinase still bound, per cent of control [12]: 100%
kinase still bound, per cent of control [13]: 100%
kinase still bound, per cent of control [14]: 100%
kinase still bound, per cent of control [15]: 100%
kinase still bound, per cent of control [16]: 58%
kinase still bound, per cent of control [17]: 100%
kinase still bound, per cent of control [18]: 100%
kinase still bound, per cent of control [19]: 97%
kinase still bound, per cent of control [20]: 100%
kinase still bound, per cent of control [21]: 83%
kinase still bound, per cent of control [22]: 100%
kinase still bound, per cent of control [23]: 100%
kinase still bound, per cent of control [24]: 100%
kinase still bound, per cent of control [25]: 75%
kinase still bound, per cent of control [26]: 100%
kinase still bound, per cent of control [27]: 69%
kinase still bound, per cent of control [28]: 66%
kinase still bound, per cent of control [29]: 90%
kinase still bound, per cent of control [30]: 100%
kinase still bound, per cent of control [31]: 100%
kinase still bound, per cent of control [32]: 78% and 100%
kinase still bound, per cent of control [33]: 77%
kinase still bound, per cent of control [34]: 97%
kinase still bound, per cent of control [35]: 100%
kinase still bound, per cent of control [36]: 100%
kinase still bound, per cent of control [37]: 90%
kinase still bound, per cent of control [38]: 100%
kinase still bound, per cent of control [39]: 100%
kinase still bound, per cent of control [40]: 72%
